Data reported in US20030044356A1, “Composition for nasal solution sprays having effective component of 1,2,3,9-tetrahydro-9-methyl-3-[(2-methyl-1H-imidazol-1-yl)methyl]-4H-carbazol-4-one)” (priority 2001, published 2003).
Where two headings read alike, the source gives them in different places.

Experiments:
[1] = Permeation through excised duodenal mucosa; format: in vitro ADME, rabbit
Description: (§1) The results are shown in below Table 2.

[2] = Test for intranasal stability of active ingredient in nasal mucosa extract; conditions: 37° C.; for Residual Concentration: 200 μg/mL added
Method: The fresh nasal mucosa excised from a rabbit (body weight 3.0 kg, New Zealand White female rabbit) was mounted to the Valia-Chien permeation system maintained at a constant temperature of 37° C. Each of the donor and receptor half-cells was filled with each 3.5 mL of saline, maintained at the constant temperature for 4 hours while stirring with a magnetic star-head bar, and then both extracts from the half-cells were combined and used as nasal mucosa extracts.
Ondansetron hydrochloride (200 μg/mL) was added to the obtained nasal mucosa extract, and then maintained at the temperature of 37° C. for 4 hours while gently shaking in order to confirm the physiochemical or enzymatic stability of ondansetron hydrochloride in a nasal cavity.

[3] = format: in vitro ADME; conditions: female, New Zealand White, rabbit
Description: as §1

[4] = Permeation through excised colonic mucosa; format: in vitro ADME, rabbit
Description: as §1

[5] = Comparison of bioavailability after nasal, intravenous and oral administration; format: in vivo, Sprague-Dawley male rats; conditions: rats, 2 mg/kg; for Cmax / Tmax / AUC(0-t): male, Sprague-Dawley, rat, in vivo; for AUC(0-t): read-out: AUC0-2hr
Method: Twenty four (24) white rats (body weight 250-300 g, Sprague-Dawley male rats) were classified into 3 groups, namely 6, 11 and 7 rats. After nasal, intravenous and oral administration to each group of rats, the bioavailability according to the different routes of administration was compared.
Ondansetron hydrochloride was dissolved in the composition obtained in Formulation Example for nasal administration, in 0.9% saline for intravenous administration, and in purified water for oral administration as vehicles, respectively. Each 2 mg/kg of the solutions was administered thereby. The blood samples were collected at the predetermined time intervals to analyze the concentration of ondansetron hydrochloride in the plasma. The bioavailibity parameters were calculated from the assay results.

[6] = Permeation through excised rectal mucosa; format: in vitro ADME, rabbit
Description: as §1

[7] = inhaled or intranasal, nasal, in composition of Formulation Example

Compound: Cc1nccn1CC1CCc2c(c3ccccc3n2C)C1=O.Cl.O.O (stereo not shown) [ondansetron hydrochloride, 1,2,3,9-tetrahydro-9-methyl-3-[(2-methyl-1H-imidazol-1-yl)methyl]-4H-carbazol-4-one hydrochloride dihydrate]
- Cumulative Amounts ([1]; 0.5 hr): 14.8 ± 3.5 μg/cm^2
- Cumulative Amounts ([1]; 1.0 hr): 35.4 ± 8.2 μg/cm^2
- Cumulative Amounts ([1]; 2.0 hr): 94.6 ± 23.9 μg/cm^2
- Cumulative Amounts ([1]; 4.0 hr): 280.1 ± 43.2 μg/cm^2
- Cumulative Amounts ([1]; 6.0 hr): 453.1 ± 36.3 μg/cm^2
- Residual Concentration ([2]; 0 hr): 198.6 ± 1.3 µg/mL
- Residual Concentration ([2]; 1 hr): 199.0 ± 5.2 µg/mL
- Residual Concentration ([2]; 2 hr): 203.5 ± 3.0 µg/mL
- Residual Concentration ([2]; 3 hr): 196.9 ± 0.6 µg/mL
- Residual Concentration ([2]; 4 hr): 197.9 ± 9.6 µg/mL
- degradation in nasal mucosa extract ([2]; for 4 hours): not nearly degraded
- Cumulative Amounts ([3]; 0.333 hr): 68.2 ± 4.7 μg/cm^2
- permeation rate through nasal mucosa relative to colonic mucosa ([3]; 30 min): 7.5 times
- permeation rate through nasal mucosa relative to duodenal mucosa ([3]; 30 min): 7.2 times
- permeation rate through nasal mucosa relative to rectal mucosa ([3]; 30 min): 15.8 times
- Cumulative Amounts ([3]; 0.5 hr): 106.8 ± 14.9 μg/cm^2
- Cumulative Amounts ([3]; 1 hr): 180.5 ± 12.4 μg/cm^2
- Cumulative Amounts ([3]; 1.5 hr): 261.5 ± 15.1 μg/cm^2
- Cumulative Amounts ([3]; 2 hr): 289.3 ± 23.5 μg/cm^2
- Cumulative Amounts ([3]; 3 hr): 414.6 ± 22.6 μg/cm^2
- Cumulative Amounts ([3]; 4 hr): 559.4 ± 28.2 μg/cm^2
- Cumulative Amounts ([4]; 0.5 hr): 14.3 ± 2.2 μg/cm^2
- Cumulative Amounts ([4]; 1.0 hr): 36.5 ± 7.8 μg/cm^2
- Cumulative Amounts ([4]; 2.0 hr): 112.1 ± 14.6 μg/cm^2
- Cumulative Amounts ([4]; 4.0 hr): 294.8 ± 14.7 μg/cm^2
- Cumulative Amounts ([4]; 6.0 hr): 438.9 ± 27.2 μg/cm^2
- Cmax [5, 7]: 49.4 ± 18.7 ng/mL
- Tmax [5, 7]: 9.4 min
- AUC(0-t) [5, 7]: 53.2 ± 9.5 ng·h/mL
- AUC(0-t) ([5]; IV injection, in 0.9% saline): 51.1 ± 7.4 ng·h/mL
- Cmax ([5]; oral, in purified water): 29.7 ± 10.6 ng/mL
- Tmax ([5]; oral, in purified water): 11.8 min
- AUC(0-t) ([5]; oral, in purified water): 24.9 ± 12.6 ng·h/mL
- AUC0-2 hr in nasal administration higher than that in oral administration [5]: 2.1 times
- Cmax in oral administration lower than that in nasal administration [5]: 1.7 times
- Cumulative Amounts ([6]; 0.5 hr): 6.7 ± 0.1 μg/cm^2
- Cumulative Amounts ([6]; 1.0 hr): 9.6 ± 0.9 μg/cm^2
- Cumulative Amounts ([6]; 2.0 hr): 19.3 ± 5.8 μg/cm^2
- Cumulative Amounts ([6]; 4.0 hr): 54.1 ± 6.7 μg/cm^2
- Cumulative Amounts ([6]; 6.0 hr): 164.2 ± 9.2 μg/cm^2
